Results on 14 compounds are retold here after PubChem BioAssay AID180 (DTP/NCI, 2004).

In the assay the test system is BDF1 mice, Adenocarcinoma 755 s.c., tumor weight T/C. Kind of assay: NCI In Vivo Anticancer Drug Screen. Data for tumor model Adenocarcinoma 755 (subcutaneous) in B6D2F1 (BDF1) mice. The following applies: endpoint: mean tumor weight, higher = larger tumour. The procedure, abridged:
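Readout: T/C, i.e. treated-group measurement over vehicle-control measurement. Endpoint is survival or tumor size in tumor-bearing mice given compound.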

[1] abbreviates: dose: 50.0 mg/kg/injection, schedule: Q01DX011 (ip), vehicle: carboxymethylcellulose (CMC).
[2] abbreviates: dose: 62.5 mg/kg/injection, schedule: Q01DX011 (ip), vehicle: carboxymethylcellulose (CMC).
The mark [3] stands for this setting: dose: 100.0 mg/kg/injection, schedule: Q01DX011 (ip), vehicle: carboxymethylcellulose (CMC).
[4] abbreviates: dose: 15.0 mg/kg/injection, schedule: Q01DX011 (oral), vehicle: carboxymethylcellulose (CMC).
The mark [5] stands for this setting: dose: 25.0 mg/kg/injection, schedule: Q01DX011 (ip), vehicle: methylcellulose (MC).
Setting [6] is: dose: 30.0 mg/kg/injection, schedule: Q01DX011 (ip), vehicle: carboxymethylcellulose (CMC).
[7] abbreviates: dose: 60.0 mg/kg/injection, schedule: Q01DX011 (ip), vehicle: carboxymethylcellulose (CMC).
[8] abbreviates: dose: 50.0 mg/kg/injection, schedule: Q01DX011 (ip), vehicle: methylcellulose (MC).
Setting [9] is: dose: 20.0 mg/kg/injection, schedule: Q01DX011 (ip), vehicle: saline.
Where [10] appears, read: dose: 40.0 mg/kg/injection, schedule: Q01DX011 (ip), vehicle: saline.
Setting [11] is: dose: 80.0 mg/kg/injection, schedule: Q01DX011 (ip), vehicle: saline.
Setting [12] is: dose: 160.0 mg/kg/injection, schedule: Q01DX011 (ip), vehicle: saline.

Values joined by “and” are separate entries in the source; they are usually repeats but may differ in a detail not shown here. Equal values may be shown once.

Regarding `NC(=O)NO`, the T/C (dose: 15.97 mg/kg/injection, schedule: Q01DX011 (ip), vehicle: carboxymethylcellulose (CMC)) was 76 % of control; the T/C (dose: 25.0 mg/kg/injection, schedule: Q01DX011 (ip), vehicle: carboxymethylcellulose (CMC)) is 111 % of control; the T/C (dose: 31.93 mg/kg/injection, schedule: Q01DX011 (ip), vehicle: carboxymethylcellulose (CMC)) is 67 % of control; the T/C under setting [1] is 83 % of control; the T/C (dose: 51.08 mg/kg/injection, schedule: Q01DX011 (ip), vehicle: carboxymethylcellulose (CMC)) was 56 % of control; the T/C under setting [2] is 31 % of control. Moreover, the T/C reads like this: (dose: 63.85 mg/kg/injection, schedule: Q01DX011 (ip), vehicle: carboxymethylcellulose (CMC)) 41 % of control and 47 % of control; (dose: 85.13 mg/kg/injection, schedule: Q01DX011 (ip), vehicle: carboxymethylcellulose (CMC)) 53 % of control; under setting [3], 58 % of control; (dose: 125.0 mg/kg/injection, schedule: Q01DX011 (ip), vehicle: carboxymethylcellulose (CMC)) 44 % of control; (dose: 127.7 mg/kg/injection, schedule: Q01DX011 (ip), vehicle: carboxymethylcellulose (CMC)) 22 % of control and 39 % of control; (dose: 200.0 mg/kg/injection, schedule: Q01DX011 (ip), vehicle: carboxymethylcellulose (CMC)) 13 % of control. Besides, the T/C was 6 % of control and 12 % of control and 19 % of control (dose: 250.0 mg/kg/injection, schedule: Q01DX011 (ip), vehicle: carboxymethylcellulose (CMC)); 19 % of control (dose: 500.0 mg/kg/injection, schedule: Q01DX011 (ip), vehicle: carboxymethylcellulose (CMC)).

For the compound `NC(CCCC(N)C(=O)O)C(=O)O` (stereo not drawn), the T/C reads like this: (dose: 200.0 mg/kg/injection, schedule: Q01DX011 (ip), vehicle: other) 75 % of control; (dose: 400.0 mg/kg/injection, schedule: Q01DX011 (ip), vehicle: other) 77 % of control; (dose: 600.0 mg/kg/injection, schedule: Q01DX011 (ip), vehicle: other) 93 % of control.

Regarding `Ic1ncnc2c1ncn2C1CCCO1` (stereo not drawn), the T/C by setting is: under setting [1], 94 % of control; under setting [3], 84 % of control.

For the compound `Cc1ccc(N=S=O)cc1`, under “dose: 125.0 mg/kg/injection, schedule: Q01DX011 (ip), vehicle: saline”, the T/C is 68 % of control.

For `S=c1nc[nH]c2c1ncn2C1CCCC1`, the T/C (dose: 3.0 mg/kg/injection, schedule: Q01DX011 (ip), vehicle: methylcellulose (MC)) was 69 % of control; the T/C (dose: 6.0 mg/kg/injection, schedule: Q01DX011 (ip), vehicle: methylcellulose (MC)) was 50 % of control; the T/C (dose: 12.0 mg/kg/injection, schedule: Q01DX011 (ip), vehicle: methylcellulose (MC)) was 22 % of control; the T/C (dose: 15.0 mg/kg/injection, schedule: Q01DX011 (ip), vehicle: carboxymethylcellulose (CMC)) is 12 % of control and 17 % of control; the T/C under setting [4] was 13 % of control; the T/C under setting [5] is 4 % of control and 5 % of control. For the same compound, the T/C reads like this: under setting [6], 6 % of control and 10 % of control; (dose: 30.0 mg/kg/injection, schedule: Q01DX011 (oral), vehicle: carboxymethylcellulose (CMC)) 7 % of control; under setting [7], 2 % of control and 3 % of control; (dose: 60.0 mg/kg/injection, schedule: Q01DX011 (oral), vehicle: carboxymethylcellulose (CMC)) 4 % of control; (dose: 120.0 mg/kg/injection, schedule: Q01DX011 (oral), vehicle: carboxymethylcellulose (CMC)) 3 % of control; (dose: 162.0 mg/kg/injection, schedule: Q01DX001 (ip), vehicle: carboxymethylcellulose (CMC)) 94 % of control. The T/C runs as follows: (dose: 325.0 mg/kg/injection, schedule: Q01DX001 (ip), vehicle: carboxymethylcellulose (CMC)) 7 % of control; (dose: 1300.0 mg/kg/injection, schedule: Q01DX001 (ip), vehicle: carboxymethylcellulose (CMC)) 1 % of control.

In the case of `Nc1nc2nc(/N=N/SCCO)[nH]c2c(=O)[nH]1`, the T/C is 65 % of control under setting [5] and 39 % of control under setting [8].

For the compound `Ic1ncnc2nc[nH]c12`, the T/C reads like this: (dose: 2.5 mg/kg/injection, schedule: Q01DX011 (ip), vehicle: carboxymethylcellulose (CMC)) 90 % of control; (dose: 3.2 mg/kg/injection, schedule: Q01DX011 (oral), vehicle: carboxymethylcellulose (CMC)) 78 % of control; (dose: 5.0 mg/kg/injection, schedule: Q01DX011 (ip), vehicle: carboxymethylcellulose (CMC)) 90 % of control; (dose: 7.5 mg/kg/injection, schedule: Q01DX011 (oral), vehicle: carboxymethylcellulose (CMC)) 41 % of control; under setting [4], 14 % of control; under setting [2], 21 % of control.

On to `Nc1nc(SCc2ccccn2)c2ncn(C3CCCC3)c2n1`, for which the T/C runs as follows: (dose: 1.1 mg/kg/injection, schedule: Q01DX011 (ip), vehicle: carboxymethylcellulose (CMC)) 79 % of control; (dose: 2.3 mg/kg/injection, schedule: Q01DX011 (ip), vehicle: carboxymethylcellulose (CMC)) 96 % of control; (dose: 4.6 mg/kg/injection, schedule: Q01DX011 (ip), vehicle: carboxymethylcellulose (CMC)) 74 % of control; (dose: 9.3 mg/kg/injection, schedule: Q01DX011 (ip), vehicle: carboxymethylcellulose (CMC)) 22 % of control; (dose: 37.5 mg/kg/injection, schedule: Q01DX011 (ip), vehicle: carboxymethylcellulose (CMC)) 2 % of control.

`CCOC=Nc1c(N)ncnc1F`: the T/C is 92 % of control under setting [6]; 89 % of control under setting [7]; 57 % of control (dose: 120.0 mg/kg/injection, schedule: Q01DX011 (ip), vehicle: carboxymethylcellulose (CMC)); 55 % of control (dose: 240.0 mg/kg/injection, schedule: Q01DX011 (ip), vehicle: carboxymethylcellulose (CMC)).

For the compound `OCn1cccn1`, the T/C was 68 % of control (dose: 20.0 mg/kg/injection, schedule: Q01DX011 (ip), vehicle: other); 89 % of control under setting [9]; 23 % of control (dose: 40.0 mg/kg/injection, schedule: Q01DX011 (ip), vehicle: other); 45 % of control under setting [10]; 2 % of control (dose: 80.0 mg/kg/injection, schedule: Q01DX011 (ip), vehicle: other); 27 % of control under setting [11]. Besides, the T/C under setting [12] is 2 % of control.

Take `C[N+](C)(C)c1ncnc2nc[nH]c12`: the T/C (dose: 1.25 mg/kg/injection, schedule: Q01DX011 (ip), vehicle: saline) is 89 % of control and 77 % of control; the T/C (dose: 2.5 mg/kg/injection, schedule: Q01DX011 (ip), vehicle: saline) was 61 % of control and 75 % of control and 86 % of control; the T/C (dose: 11.25 mg/kg/injection, schedule: Q01DX011 (ip), vehicle: saline) is 44 % of control; the T/C under setting [9] is 6 % of control and 12 % of control; the T/C (dose: 22.5 mg/kg/injection, schedule: Q01DX011 (ip), vehicle: saline) was 3 % of control; the T/C under setting [10] is 1 % of control and 3 % of control. For the same compound, the T/C (dose: 45.0 mg/kg/injection, schedule: Q01DX011 (ip), vehicle: saline) was 1 % of control; the T/C under setting [11] was 1 % of control and 4 % of control; the T/C (dose: 90.0 mg/kg/injection, schedule: Q01DX011 (ip), vehicle: saline) was 1 % of control; the T/C under setting [12] was 1 % of control and 3 % of control.

On to `CCCCCCCCSc1ncnc2c1ncn2CC`, for which the T/C by setting is: (dose: 150.0 mg/kg/injection, schedule: Q01DX011 (ip), vehicle: saline) 58 % of control; (dose: 300.0 mg/kg/injection, schedule: Q01DX011 (ip), vehicle: saline) 17 % of control.

As for `Nc1nc(NC2CCCCC2)cc(=O)[nH]1`, the T/C was 56 % of control under setting [8]; 55 % of control (dose: 100.0 mg/kg/injection, schedule: Q01DX011 (ip), vehicle: methylcellulose (MC)); 51 % of control (dose: 200.0 mg/kg/injection, schedule: Q01DX011 (ip), vehicle: methylcellulose (MC)); 33 % of control (dose: 400.0 mg/kg/injection, schedule: Q01DX011 (ip), vehicle: methylcellulose (MC)).

As to `COc1cc2c3c(c4ccc(OC)c(OC)c4c2cc1OC)CN1CCC[C@@H]1C3`, the T/C was 65 % of control (dose: 5.0 mg/kg/injection, schedule: Q02DX006 (ip), vehicle: water); 52 % of control (dose: 10.0 mg/kg/injection, schedule: Q02DX006 (ip), vehicle: water); 33 % of control (dose: 15.0 mg/kg/injection, schedule: Q02DX006 (ip), vehicle: water); 21 % of control (dose: 20.0 mg/kg/injection, schedule: Q02DX006 (ip), vehicle: water).
